#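 These data come from cells grown in 96-well plates and exposed to compound for 48 hours at five concentrations. TGI denotes the concentration required for complete inhibition of growth.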
# Tests used:
# Test in all cases: growth of human tumour cells (NCI), 48 h
# 786-0 renal = test system: 786-0 renal
# A498 renal = test system: A498 renal
# A549 NSCLC = test system: A549 NSCLC
# ACHN renal = test system: ACHN renal
# CAKI-1 renal = test system: CAKI-1 renal
# CCRF-CEM leukemia = test system: CCRF-CEM leukemia
# COLO 205 colon = test system: COLO 205 colon
# DU-145 prostate = test system: DU-145 prostate
# EKVX NSCLC = test system: EKVX NSCLC
# HCC-2998 colon = test system: HCC-2998 colon
# HCT-116 colon = test system: HCT-116 colon
# HCT-15 colon = test system: HCT-15 colon
# HL-60(TB) leukemia = test system: HL-60(TB) leukemia
# HOP-18 NSCLC = test system: HOP-18 NSCLC
# HOP-62 NSCLC = test system: HOP-62 NSCLC
# HOP-92 NSCLC = test system: HOP-92 NSCLC
# HS 578T breast = test system: HS 578T breast
# HT29 colon = test system: HT29 colon
# IGROV1 ovarian = test system: IGROV1 ovarian
# K-562 leukemia = test system: K-562 leukemia
# KM12 colon = test system: KM12 colon
# KM20L2 colon = test system: KM20L2 colon
# LOX IMVI melanoma = test system: LOX IMVI melanoma
# LXFL 529 NSCLC = test system: LXFL 529 NSCLC
# M14 melanoma = test system: M14 melanoma
# MALME-3M melanoma = test system: MALME-3M melanoma
# MCF7 breast = test system: MCF7 breast
# MDA-MB-231 breast = test system: MDA-MB-231 breast
# MDA-MB-435 = test system: MDA-MB-435
# MDA-N = test system: MDA-N
# MOLT-4 leukemia = test system: MOLT-4 leukemia
# NCI-H226 lung = test system: NCI-H226 lung
# NCI-H23 lung = test system: NCI-H23 lung
# NCI-H460 lung = test system: NCI-H460 lung
# NCI-H522 lung = test system: NCI-H522 lung
# NCI/ADR-RES ovarian = test system: NCI/ADR-RES ovarian
# OVCAR-3 ovarian = test system: OVCAR-3 ovarian
# OVCAR-5 ovarian = test system: OVCAR-5 ovarian
# OVCAR-8 ovarian = test system: OVCAR-8 ovarian
# PC-3 prostate = test system: PC-3 prostate
# RPMI-8226 leukemia = test system: RPMI-8226 leukemia
# RXF 393 renal = test system: RXF 393 renal
# RXF-631 renal = test system: RXF-631 renal
# SF-268 CNS = test system: SF-268 CNS
# SF-295 CNS = test system: SF-295 CNS
# SF-539 CNS = test system: SF-539 CNS
# SK-MEL-2 melanoma = test system: SK-MEL-2 melanoma
# SK-MEL-28 melanoma = test system: SK-MEL-28 melanoma
# SK-MEL-5 melanoma = test system: SK-MEL-5 melanoma
# SK-OV-3 ovarian = test system: SK-OV-3 ovarian
# SN12C renal = test system: SN12C renal
# SNB-19 CNS = test system: SNB-19 CNS
# SNB-75 CNS = test system: SNB-75 CNS
# SNB-78 CNS = test system: SNB-78 CNS
# SR leukemia = test system: SR leukemia
# SW-620 colon = test system: SW-620 colon
# T-47D breast = test system: T-47D breast
# TK-10 renal = test system: TK-10 renal
# U251 CNS = test system: U251 CNS
# UACC-257 melanoma = test system: UACC-257 melanoma
# UACC-62 melanoma = test system: UACC-62 melanoma
# UO-31 renal = test system: UO-31 renal
# XF 498 CNS = test system: XF 498 CNS
compound,measurement,setting,value
O=C(Nc1nc2ncn(CCOC(=O)c3ccccc3)c2c(=O)[nH]1)c1ccccc1,TGI,786-0 renal,> 100 µM
same,TGI,A498 renal,> 100 µM
same,TGI,A549 NSCLC,> 100 µM
same,TGI,ACHN renal,> 100 µM
same,TGI,CAKI-1 renal,> 100 µM
same,TGI,CCRF-CEM leukemia,> 100 µM
same,TGI,COLO 205 colon,23.6 µM
same,TGI,DU-145 prostate,> 100 µM
same,TGI,EKVX NSCLC,> 100 µM
same,TGI,HCC-2998 colon,> 100 µM
same,TGI,HCT-116 colon,> 100 µM
same,TGI,HCT-15 colon,> 100 µM
same,TGI,HL-60(TB) leukemia,> 24.6 µM
same,TGI,HOP-18 NSCLC,> 100 µM
same,TGI,HOP-62 NSCLC,> 100 µM
same,TGI,HOP-92 NSCLC,> 75.6 µM
same,TGI,HS 578T breast,51.7 µM
same,TGI,HT29 colon,> 37.9 µM
same,TGI,IGROV1 ovarian,> 100 µM
same,TGI,K-562 leukemia,> 100 µM
same,TGI,KM12 colon,> 100 µM
same,TGI,KM20L2 colon,83.3 µM
same,TGI,LOX IMVI melanoma,> 100 µM
same,TGI,LXFL 529 NSCLC,> 100 µM
same,TGI,M14 melanoma,> 100 µM
same,TGI,MALME-3M melanoma,> 100 µM
same,TGI,MCF7 breast,> 100 µM
same,TGI,MDA-MB-231 breast,> 100 µM
same,TGI,MDA-MB-435,8.32 µM
same,TGI,MDA-N,7.89 µM
same,TGI,MOLT-4 leukemia,> 100 µM
same,TGI,NCI-H226 lung,> 100 µM
same,TGI,NCI-H23 lung,> 100 µM
same,TGI,NCI-H460 lung,> 100 µM
same,TGI,NCI-H522 lung,8.32 µM
same,TGI,NCI/ADR-RES ovarian,> 100 µM
same,TGI,OVCAR-3 ovarian,> 100 µM
same,TGI,OVCAR-5 ovarian,> 100 µM
same,TGI,OVCAR-8 ovarian,> 100 µM
same,TGI,PC-3 prostate,> 100 µM
same,TGI,RPMI-8226 leukemia,> 100 µM
same,TGI,RXF 393 renal,> 93.2 µM
same,TGI,RXF-631 renal,> 100 µM
same,TGI,SF-268 CNS,> 100 µM
same,TGI,SF-295 CNS,54.2 µM
same,TGI,SF-539 CNS,65.2 µM
same,TGI,SK-MEL-2 melanoma,> 100 µM
same,TGI,SK-MEL-28 melanoma,> 100 µM
same,TGI,SK-MEL-5 melanoma,> 100 µM
same,TGI,SK-OV-3 ovarian,> 79.9 µM
same,TGI,SN12C renal,> 100 µM
same,TGI,SNB-19 CNS,> 100 µM
same,TGI,SNB-75 CNS,> 71.7 µM
same,TGI,SNB-78 CNS,> 100 µM
same,TGI,SR leukemia,> 100 µM
same,TGI,SW-620 colon,> 100 µM
same,TGI,T-47D breast,> 100 µM
same,TGI,TK-10 renal,> 100 µM
same,TGI,U251 CNS,> 64.8 µM
same,TGI,UACC-257 melanoma,> 100 µM
same,TGI,UACC-62 melanoma,> 100 µM
same,TGI,UO-31 renal,> 100 µM
same,TGI,XF 498 CNS,55.7 µM
